We go through ten compounds from patent US10947205B2, “Oxazolidinone compounds and methods of use thereof as antibacterial agents” (priority 2015, dated 2021).

Converted amounts (≈) assume the structure as drawn. Read-outs that look alike come from different tables or passages of the source. Bounds are passed on as bounds.

Assay [1] relates to Staphylococcus aureus (methicillin resistant, MB5393, COL). The assay is described as follows: microbe, parasite or virus in culture. The class given is cell-based. Conditions: MRSA, 22 h, read-out: MRSA COL MITC95 μM. Here is the method: Inhibition of Staphylococcus aureus (methicillin resistant, MB5393, COL) growth was assessed in cation adjusted Mueller Hinton II broth (CAMHB) in 384-well microtiter plates. Bacteria were dispensed into microtiter plates at approximately 5×10^5 actively growing cells in 49 μL volumes per well. Cells were exposed to 2-fold serial dilutions of compounds from 200 μM to 0.195 μM and growth compared to drug-free control. Compound dilutions were prepared in 100% dimethylsulfoxide and added to microtiter plates in 1 μL volumes per well. Full growth control wells contained dimethylsufoxide and bacteria. No growth control wells contained dimethysulfoxide and CAMHB but no bacteria. Growth inhibition was assessed after a 22-hour growth period by measuring optical density using a spectrophotometer. The lowest concentration of test compound required to inhibit 95% of the growth of the bacteria was defined as the MITC95. All studies were done in a BSL2 facility.

For assay [2], the system named is Mycobacterium tuberculosis (Mtb). The assay is described as follows: microbe, parasite or virus in culture. The class given is cell-based, Mycobacterium tuberculosis H37Rv (Mtb-GFP). Particulars: 168 h.
For assay [3], the system named is mitochondrial protein synthesis in HepG2 cells (COX-I / SDH-A). Briefly: Mitochondrial protein synthesis assay. The class given is cell-based. Conditions: Homo sapiens, read-out: MPS IC50_μM. The protocol: (§1) Inhibition of mitochondrial protein synthesis was assessed in HepG2 cells by comparing the levels of two subunits of oxidative phosphorylation enzyme complexes, subunit I of Complex IV (COX-I) and the 70 kDa subunit of Complex II (SDH-A). COX-I is mitochondrial DNA encoded and SDH-A is nuclear DNA encoded. HepG2 cells were seeded in 96-well collagen coated plates at 8,000 cells per well and exposed to 2-fold serial dilutions of compounds from 100 LM to 6.25 μM. Microtiter plates were incubated for approximately 5 replication cycles (4 days) prior to assessment of protein levels using a kit as described by the manufacturer (ab 110217 MitoBiogenesis In Cell ELISA Kit, Abcam, Cambridge, Mass.). Inhibition of mitochondrial protein synthesis was expressed as a ratio of COX-1 to SDH-A levels.
as §1, with “μM” for “LM”

The mark [4] stands for this setting: pH 6.8, read-out: Mtb Cho MITC95_μM.
Where [5] appears, read: pH 6.8, read-out: Mtb Glu MITC95_μM.
Setting [6] is: 96 h, HepG2 cells, 4 days, ratio of COX-1 to SDH-A levels.

For `CCNC(=O)NC[C@H]1CN(c2ccc(-c3ccc(SC)cc3)c(F)c2)C(=O)O1` [Example 58, (S)-1-ethyl-3-((3-(2-fluoro-4′-(methylthio)-[1,1′-biphenyl]-4-yl)-2-oxooxazolidin-5-yl)methyl)urea], the MIC in assay [1] was found to be 200 µM (≈ 80.7 µg/mL); in assay [2] (setting [4]) it was 0.19 µM (≈ 0.0767 µg/mL); in assay [2] (setting [5]), 0.58 µM (≈ 0.234 µg/mL). For the same compound, the IC50 in assay [3] (HepG2, 96 h) was more than 20 µM.

Consider `C[S+]([O-])c1ccc(-c2ccc(N3C[C@H](CN)OC3=O)cc2F)cc1` (stereo partly drawn) [Example 7, (5S)-5-(aminomethyl)-3-[2-fluoro-4′-(methylsulfinyl)biphenyl-4-yl]-1,3-oxazolidin-2-one], for which the values for the MIC in assay [1], in assay [2] (setting [4]) and in assay [2] (setting [5]) were 200 µM (≈ 69.7 µg/mL), 0.09 µM (≈ 0.0314 µg/mL) and 0.04 µM (≈ 0.0139 µg/mL), respectively. Besides, in assay [3] (setting [6]), the IC50 is more than 20 µM.

Consider `N#Cc1ccc(-c2ccc(N3C[C@H](CN)OC3=O)cc2F)cc1` [Example 18, 4′-[(5S)-5-(aminomethyl)-2-oxo-1,3-oxazolidin-3-yl]-2′-fluorobiphenyl-4-carbonitrile], for which the MIC in assay [1] amounted to 50 µM (≈ 15.6 µg/mL); in assay [2] (setting [4]), 0.09 µM (≈ 0.028 µg/mL); in assay [2] (setting [5]), 0.04 µM (≈ 0.0125 µg/mL). The IC50 in assay [3] (setting [6]) was more than 20 µM.

`COc1ncc(-c2ccc(N3C[C@H](CN)OC3=O)cc2F)cn1` [Example 28, (5S)-5-(aminomethyl)-3-[3-fluoro-4-(2-methoxypyrimidin-5-yl)phenyl]-1,3-oxazolidin-2-one]: the MIC was found to be 200 µM (≈ 63.7 µg/mL) in assay [1], 1.14 µM (≈ 0.363 µg/mL) in assay [2] (setting [4]) and 0.3 µM (≈ 0.0955 µg/mL) in assay [2] (setting [5]). In assay [3] (setting [6]), the IC50 was more than 100 µM.

As to `NC[C@H]1CN(c2ccc(-c3cnn4ncccc34)c(F)c2)C(=O)O1` [Example 38, (5S)-5-(aminomethyl)-3-(3-fluoro-4-pyrazolo[1,5-b]pyridazin-3-ylphenyl)-1,3-oxazolidin-2-one], the MIC was found to be 200 µM (≈ 65.5 µg/mL) in assay [1], 0.39 µM (≈ 0.128 µg/mL) in assay [2] (setting [4]) and 0.14 µM (≈ 0.0458 µg/mL) in assay [2] (setting [5]). For the same compound, the IC50 in assay [3] (setting [6]) was more than 20 µM.

As to `CCOC(=O)NC[C@H]1CN(c2ccc(-c3ccc(SC)cc3)c(F)c2)C(=O)O1` [Example 63, ethyl ({(5S)-3-[2-fluoro-4′-(methylsulfanyl)biphenyl-4-yl]-2-oxo-1,3-oxazolidin-5-yl}methyl)carbamate], the values for the MIC in assay [1], in assay [2] (setting [4]) and in assay [2] (setting [5]) were 200 µM (≈ 80.9 µg/mL), 0.19 µM (≈ 0.0768 µg/mL) and 0.29 µM (≈ 0.117 µg/mL), respectively. Further, the IC50 in assay [3] (setting [6]) was found to be 18 µM.

As to `CSc1ccc(-c2c(F)cc(N3C[C@H](CNC(C)=O)OC3=O)cc2F)cc1` [Example 47, (S)—N-((3-(2,6-difluoro-4′-(methylthio)-[1,1′-biphenyl]-4-yl)-2-oxooxazolidin-5-yl)methyl)acetamide], the values for the MIC in assay [1], in assay [2] (setting [4]) and in assay [2] (setting [5]) were 0.781 µM (≈ 0.307 µg/mL), 0.01 µM (≈ 0.00392 µg/mL) and 0.03 µM (≈ 0.0118 µg/mL), respectively. Also, the IC50 in assay [3] (setting [6]) is more than 20 µM.

On to `CSc1ccc(-c2ncc(N3C[C@H](CNC(C)=O)OC3=O)cc2F)cc1` [Example 40, (S)—N-((3-(5-fluoro-6-(4-(methylthio)phenyl)pyridin-3-yl)-2-oxooxazolidin-5-yl)methyl)acetamide], for which the MIC in assay [1] came out at 4.69 µM (≈ 1.76 µg/mL); in assay [2] (setting [4]) it was 0.09 µM (≈ 0.0338 µg/mL); in assay [2] (setting [5]), 0.076 µM (≈ 0.0285 µg/mL). Besides, the IC50 in assay [3] (HepG2, 96 h) was more than 15 µM.

As to `NC[C@H]1CN(c2ccc(-c3cnc(N4CCCOCC4)nc3)c(F)c2)C(=O)O1` [Example 29, (5S)-5-(aminomethyl)-3-{3-fluoro-4-[2-(1,4-oxazepan-4-yl)pyrimidin-5-yl]phenyl}-1,3-oxazolidin-2-one], the MIC in assay [1] turned out to be 200 µM (≈ 77.5 µg/mL); in assay [2] (setting [4]) it was 1.5 µM (≈ 0.581 µg/mL); in assay [2] (setting [5]) it was 0.39 µM (≈ 0.151 µg/mL). Besides, in assay [3] (setting [6]), the IC50 was more than 25 µM.

On to `NC[C@H]1CN(c2ccc(-c3cccc(C(N)=O)c3)c(F)c2)C(=O)O1` [Example 10, 4′-[(5S)-5-(aminomethyl)-2-oxo-1,3-oxazolidin-3-yl]-2′-fluorobiphenyl-3-carboxamide], for which the figures for the MIC in assay [1], in assay [2] (setting [4]) and in assay [2] (setting [5]) were 200 µM (≈ 65.9 µg/mL), 0.09 µM (≈ 0.0296 µg/mL) and 0.09 µM (≈ 0.0296 µg/mL), respectively. In assay [3] (setting [6]), the IC50 was more than 20 µM.
